The results in this text go back to US20250387486A1, “LIPID COMPOSITION” (STEMIRNA THERAPEUTICS CO., LTD., priority 2022, published 2025).

The assay has as its system B16F10 tumor-bearing mice. As to the kind of experiment: Luciferase expression tumor/whole body after intratumoral injection, B16F10 tumor-bearing mice. Type of assay: in vivo, C57BL/6 mice. Particulars: for LNP (tumor/whole body)% ratio of luciferase expression: cationic lipid:DSPC:PEG-DMG:cholesterol 50:10:1.5:38.5 (groups 1-1 to 1-3); for LNP (tumor/whole body)% ratio of luciferase expression / LPP (tumor/whole body)% ratio of luciferase expression: 5 μg luciferase mRNA intratumoral, 6 hours; for LPP (tumor/whole body)% ratio of luciferase expression: cationic lipid:DSPC:PEG-DMG:cholesterol 50:10:1.5:38.5 (groups 1-4 to 1-6). Here is the method: (§1) Female C57BL/6 mice (Beijing Vital River Laboratory Animal Technology Co., Ltd.) of 6 weeks of age with a weight of around 20 g were used, and each mouse was injected subcutaneously unilaterally with 1×10^6 murine-derived cutaneous melanoma cells, B16F10 cells. When tumors grew to a size of about 450 mm^3, B16F10 tumor-bearing mice were divided into 6 groups (1-1, 1-2, 1-3, 1-4, 1-5, and 1-6 groups, with 3 mice per group), and LPP and LNP solutions (50 μL) containing 5 μg of luciferase mRNA prepared by the prescriptions were respectively taken and administered to the mice by intratumoral injection. 6 hours after the administration, mice were injected intraperitoneally with a 150 mg/kg […] substrate. The bioluminescence was measured in a Xenogen IVIS-200 imaging system 7 minutes after substrate injection to evaluate the expression and distribution of the luciferase mRNA in the mice.
as §1, with “into 8” for “into 6”, “groups (2-1, 2-2, 2-3, 2-4, 2-5, 2-6, 2-7,” for “groups (1-1, 1-2, 1-3, 1-4, 1-5,”, “and 2-8” for “and 1-6”, “and” for “and LPP and LNP”
as §1, with “mm^3, the” for “mm^3, B16F10 tumor-bearing”, “into 8” for “into 6”, “groups (3-1, 3-2, 3-3, 3-4, 3-5, 3-6, 3-7, 3-8” for “groups (1-1, 1-2, 1-3, 1-4, 1-5, and 1-6”, “and” for “and LPP and LNP”

As to `CCCCCCCCC(CCCCCC)C(=O)OCCCCCCN(CCCCO)CCCCCCOC(=O)C(CCCCCC)CCCCCCCC` (stereo not shown) [ALC-0315, reference compound], the “LNP (tumor/whole body)% ratio of luciferase expression” value (shortened to “LNP (tumor/whole body)% ratio”) stood at 4.9% and the “LPP (tumor/whole body)% ratio of luciferase expression” value (“LPP (tumor/whole body)% ratio” for short) is reported as 11.2 ± 7.9%.

In the case of `CCCCCCCCC(CCCCCCCC)OC(=O)CCCCCCCN(CCO)CCCCCCC(=O)OCc1ccc(CCCCCC)cc1` [SW-II-127], the “LNP (tumor/whole body)% ratio” value was determined as 15.0 ± 18.5% and the “LPP (tumor/whole body)% ratio” value worked out at 25.7 ± 15.1%.

As for `CCCCCCCCCOC(=O)CCCCCCCN(CCO)CCCCCCCC(=O)OCCCc1ccc(CCCCC)c(CCCCC)c1` [SW-II-135-1], the “LNP (tumor/whole body)% ratio” value is 43.6 ± 34.7% and the “LPP (tumor/whole body)% ratio” value came out at 58.6 ± 36.4%. The “ratio of luciferase expression of tumor/whole body, rank among cationic lipids” value (Example 3, versus ALC-0315 and SW-II-127) is recorded as “highest ratio of luciferase expression of tumor/whole body”.
